IC50 data for 27 compounds are collected here from ChEMBL document CHEMBL1158409, “Discovery of 3,5-disubstituted-1H-pyrrolo[2,3-b]pyridines as potent inhibitors of the insulin-like growth factor-1 receptor (IGF-1R) tyrosine kinase” (Bioorg Med Chem Lett, 2009).

The structures appear in SMILES notation.

By IC50 is commonly meant the concentration at which inhibition is half-maximal.

Assay [1] addresses T1, Insulin-like growth factor 1 receptor (Homo sapiens, UniProt P08069). As to the kind of experiment: Inhibition of GST-tagged human IGF1R expressed in Sf9-baculovirus system.
For assay [2], the target named is T1, Insulin-like growth factor 1 receptor. The assay can be described thus: Inhibition of IGF1-induced human IGF1R phosphorylation expressed in mouse NIH-3T3 cells treated 2 hrs prior to IGF1 challenge by DELFIA.
Assay [3] concerns the target Tyrosine-protein kinase SYK (Homo sapiens, UniProt P43405). The assay can be described thus: Inhibition of SYK.
Assay [4] concerns the target Mitogen-activated protein kinase 10 (Homo sapiens, UniProt P53779). As to the kind of experiment: Inhibition of JNK3.
Assay [5] has as its target T2, Inhibitor of nuclear factor kappa-B kinase subunit beta (Homo sapiens, UniProt O14920).
T2 sequence (O14920 whole entry): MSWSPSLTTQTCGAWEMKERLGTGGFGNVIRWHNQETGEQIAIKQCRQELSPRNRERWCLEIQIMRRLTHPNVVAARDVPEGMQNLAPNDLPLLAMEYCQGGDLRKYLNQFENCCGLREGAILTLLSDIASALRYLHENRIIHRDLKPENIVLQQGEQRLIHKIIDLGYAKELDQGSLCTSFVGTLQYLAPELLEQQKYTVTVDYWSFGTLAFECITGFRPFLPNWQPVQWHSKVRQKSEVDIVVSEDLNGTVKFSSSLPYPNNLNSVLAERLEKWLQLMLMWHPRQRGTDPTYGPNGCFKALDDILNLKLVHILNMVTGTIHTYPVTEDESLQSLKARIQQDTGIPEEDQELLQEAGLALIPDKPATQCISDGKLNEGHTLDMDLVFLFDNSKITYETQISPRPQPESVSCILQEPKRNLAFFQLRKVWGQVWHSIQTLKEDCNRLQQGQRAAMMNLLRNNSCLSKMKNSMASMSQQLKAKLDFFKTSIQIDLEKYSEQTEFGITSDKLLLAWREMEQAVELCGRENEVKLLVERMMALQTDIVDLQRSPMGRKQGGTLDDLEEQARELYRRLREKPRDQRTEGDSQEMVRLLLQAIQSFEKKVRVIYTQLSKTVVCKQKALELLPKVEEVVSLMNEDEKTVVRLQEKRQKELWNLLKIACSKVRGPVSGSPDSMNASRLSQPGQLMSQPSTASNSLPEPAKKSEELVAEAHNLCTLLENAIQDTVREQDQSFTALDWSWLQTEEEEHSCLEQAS
The assay can be described thus: Inhibition of IKK2.

Assay [6] deals with Mitogen-activated protein kinase 8 (Homo sapiens, UniProt P45983). The assay can be described thus: Inhibition of JNK1.
Chain of Mitogen-activated protein kinase 8 (P45983 whole entry): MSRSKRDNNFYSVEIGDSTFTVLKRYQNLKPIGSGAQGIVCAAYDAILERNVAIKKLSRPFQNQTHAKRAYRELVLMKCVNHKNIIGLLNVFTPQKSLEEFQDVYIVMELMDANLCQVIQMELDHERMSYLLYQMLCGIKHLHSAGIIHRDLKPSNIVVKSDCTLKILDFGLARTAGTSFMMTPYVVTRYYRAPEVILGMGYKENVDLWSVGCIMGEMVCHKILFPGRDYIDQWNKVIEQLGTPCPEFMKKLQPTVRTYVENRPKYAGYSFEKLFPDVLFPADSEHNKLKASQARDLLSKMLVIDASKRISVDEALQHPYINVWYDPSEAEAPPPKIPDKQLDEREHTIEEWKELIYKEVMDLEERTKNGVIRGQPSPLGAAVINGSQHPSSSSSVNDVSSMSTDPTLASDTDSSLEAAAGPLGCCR
The target of assay [7] is T3, Inhibitor of nuclear factor kappa-B kinase subunit alpha (Homo sapiens, UniProt O15111).
T3 sequence (O15111 whole entry): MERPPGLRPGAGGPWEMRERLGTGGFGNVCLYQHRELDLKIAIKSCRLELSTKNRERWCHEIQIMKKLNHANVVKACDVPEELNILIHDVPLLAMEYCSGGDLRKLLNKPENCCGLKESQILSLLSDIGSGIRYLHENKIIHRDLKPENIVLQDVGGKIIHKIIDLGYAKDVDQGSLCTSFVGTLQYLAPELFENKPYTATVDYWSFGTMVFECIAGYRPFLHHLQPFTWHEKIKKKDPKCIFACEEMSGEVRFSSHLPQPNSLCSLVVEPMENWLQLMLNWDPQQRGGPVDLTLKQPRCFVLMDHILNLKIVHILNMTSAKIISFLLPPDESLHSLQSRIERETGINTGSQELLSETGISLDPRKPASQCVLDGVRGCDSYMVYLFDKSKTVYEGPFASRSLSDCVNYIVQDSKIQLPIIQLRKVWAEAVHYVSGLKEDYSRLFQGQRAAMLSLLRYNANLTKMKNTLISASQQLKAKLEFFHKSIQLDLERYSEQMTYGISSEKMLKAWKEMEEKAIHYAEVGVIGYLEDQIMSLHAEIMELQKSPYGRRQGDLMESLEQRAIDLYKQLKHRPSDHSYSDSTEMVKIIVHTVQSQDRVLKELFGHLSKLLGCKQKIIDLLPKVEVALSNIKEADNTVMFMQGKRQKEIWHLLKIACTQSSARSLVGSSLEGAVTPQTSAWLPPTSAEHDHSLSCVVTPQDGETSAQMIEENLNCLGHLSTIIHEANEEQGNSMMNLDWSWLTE
The assay can be described thus: Inhibition of IKK1.

Assay [8] deals with Tyrosine-protein kinase Lyn (Homo sapiens, UniProt P07948). As to the kind of experiment: Inhibition of LYN.
Chain of Tyrosine-protein kinase Lyn (P07948 whole entry): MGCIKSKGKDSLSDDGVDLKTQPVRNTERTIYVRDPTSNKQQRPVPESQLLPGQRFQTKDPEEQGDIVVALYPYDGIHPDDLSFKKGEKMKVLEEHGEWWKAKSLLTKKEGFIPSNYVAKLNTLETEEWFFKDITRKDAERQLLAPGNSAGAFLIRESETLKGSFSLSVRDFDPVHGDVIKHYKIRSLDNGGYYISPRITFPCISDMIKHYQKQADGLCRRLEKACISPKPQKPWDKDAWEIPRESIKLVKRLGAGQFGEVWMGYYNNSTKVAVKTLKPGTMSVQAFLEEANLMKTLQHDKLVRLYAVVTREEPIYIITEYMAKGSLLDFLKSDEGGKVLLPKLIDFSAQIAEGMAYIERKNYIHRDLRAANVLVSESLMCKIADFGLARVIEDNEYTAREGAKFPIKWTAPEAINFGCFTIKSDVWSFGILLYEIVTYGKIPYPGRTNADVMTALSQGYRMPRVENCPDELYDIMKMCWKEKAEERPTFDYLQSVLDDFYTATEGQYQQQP

T1 sequence (P08069 31-736 limits assumed): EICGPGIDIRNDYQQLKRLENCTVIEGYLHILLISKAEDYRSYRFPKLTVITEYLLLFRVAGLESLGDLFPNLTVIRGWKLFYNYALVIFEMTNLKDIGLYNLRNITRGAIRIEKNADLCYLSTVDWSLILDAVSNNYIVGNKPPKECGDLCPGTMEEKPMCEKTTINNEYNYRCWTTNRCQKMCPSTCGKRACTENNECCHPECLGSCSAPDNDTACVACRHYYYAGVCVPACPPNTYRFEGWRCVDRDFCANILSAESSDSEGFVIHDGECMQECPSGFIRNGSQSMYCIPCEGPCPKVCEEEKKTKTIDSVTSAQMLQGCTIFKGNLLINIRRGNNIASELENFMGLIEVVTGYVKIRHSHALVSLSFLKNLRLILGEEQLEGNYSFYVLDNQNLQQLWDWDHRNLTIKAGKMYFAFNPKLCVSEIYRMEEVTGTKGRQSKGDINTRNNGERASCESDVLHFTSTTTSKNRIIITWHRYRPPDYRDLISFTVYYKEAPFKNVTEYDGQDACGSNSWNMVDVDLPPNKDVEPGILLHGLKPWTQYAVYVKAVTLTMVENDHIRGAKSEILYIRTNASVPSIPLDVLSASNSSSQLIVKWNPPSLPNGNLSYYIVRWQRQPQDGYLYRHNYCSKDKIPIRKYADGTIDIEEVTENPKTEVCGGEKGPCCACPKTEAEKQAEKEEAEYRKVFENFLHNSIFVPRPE
T1 sequence (P08069 741-1367 limits assumed): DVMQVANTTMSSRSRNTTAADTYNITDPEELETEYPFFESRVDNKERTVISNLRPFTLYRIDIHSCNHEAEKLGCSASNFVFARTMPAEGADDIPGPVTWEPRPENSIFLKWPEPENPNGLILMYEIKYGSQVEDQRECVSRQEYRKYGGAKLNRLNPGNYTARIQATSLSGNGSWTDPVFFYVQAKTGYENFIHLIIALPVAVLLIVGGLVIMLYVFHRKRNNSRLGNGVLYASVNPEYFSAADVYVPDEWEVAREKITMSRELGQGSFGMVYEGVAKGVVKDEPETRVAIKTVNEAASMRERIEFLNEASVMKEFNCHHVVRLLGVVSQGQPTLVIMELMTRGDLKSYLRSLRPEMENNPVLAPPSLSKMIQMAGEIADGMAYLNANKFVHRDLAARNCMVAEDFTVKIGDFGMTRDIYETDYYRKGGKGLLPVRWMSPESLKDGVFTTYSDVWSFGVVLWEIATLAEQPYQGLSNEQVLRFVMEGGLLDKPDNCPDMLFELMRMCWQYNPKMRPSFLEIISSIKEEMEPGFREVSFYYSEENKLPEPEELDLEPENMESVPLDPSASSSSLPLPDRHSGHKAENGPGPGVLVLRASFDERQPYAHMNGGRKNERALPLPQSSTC
Chain of Mitogen-activated protein kinase 10 (P53779 whole entry): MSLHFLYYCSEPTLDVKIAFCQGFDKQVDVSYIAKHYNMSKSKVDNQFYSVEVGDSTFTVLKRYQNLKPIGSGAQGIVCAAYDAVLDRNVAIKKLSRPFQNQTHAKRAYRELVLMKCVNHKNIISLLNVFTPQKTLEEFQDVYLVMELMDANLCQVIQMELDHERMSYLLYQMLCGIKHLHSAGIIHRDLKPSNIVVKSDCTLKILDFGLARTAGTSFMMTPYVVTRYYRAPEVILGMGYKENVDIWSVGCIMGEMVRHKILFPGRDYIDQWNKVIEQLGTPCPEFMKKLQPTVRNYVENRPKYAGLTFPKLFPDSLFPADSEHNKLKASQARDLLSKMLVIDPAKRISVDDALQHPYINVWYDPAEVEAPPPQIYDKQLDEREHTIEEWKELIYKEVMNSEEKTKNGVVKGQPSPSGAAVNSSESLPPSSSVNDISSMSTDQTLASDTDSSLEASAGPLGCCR

Consider `CN(C)C(=O)c1cccc(-c2cnc3[nH]cc(-c4cccc(NC(=O)Nc5ccccc5Nc5ccccc5)c4)c3c2)c1`, for which the IC50 was found to be 39 nM in assay [1] and 407 nM in assay [2]. With `CN1CCN(C(=O)c2ccc(-c3cnc4[nH]cc(-c5cccc(NC(=O)Nc6ccc(C(F)(F)F)cc6F)c5)c4c3)cc2)CC1`, in assay [1], the IC50 was 286 nM. Same read-out and setting: under `Nc1cccc(-c2cnc3[nH]cc(-c4cccc(NC(=O)Nc5ccc(C(F)(F)F)cc5F)c4)c3c2)c1` stands 242 nM; under `O=C(Nc1cccc(-c2c[nH]c3ncc(-c4ccccc4)cc23)c1)Nc1ccc(C(F)(F)F)cc1F`, 1260 nM. Take `CN(C)CCNC(=O)c1cccc(-c2cnc3[nH]cc(-c4cccc(NC(=O)Nc5ccccc5Oc5ccccc5)c4)c3c2)c1`: in assay [1], the IC50 came to 4 nM. This IC50 is about 320-fold lower than that of the compound before.

Regarding `COc1ccc(-c2cnc3[nH]cc(-c4cccc(NC(=O)Nc5ccc(C(F)(F)F)cc5F)c4)c3c2)cc1OC`, the concentration for half-maximal inhibition (IC50) in assay [1] came out at 2200 nM.

With `O=C(O)CCc1ccc(-c2cnc3[nH]cc(-c4cccc(NC(=O)Nc5ccccc5Oc5ccccc5)c4)c3c2)cc1`, the values for the IC50 in assay [1] and in assay [2] were 210 nM and 3620 nM, respectively.

Consider `CN(C)CCNC(=O)c1ccc(-c2cnc3[nH]cc(-c4cccc(NC(=O)Nc5ccc(C(F)(F)F)cc5F)c4)c3c2)cc1`, for which the midpoint of inhibition in assay [1], the IC50, lay at 36 nM. For the compound `CN(C)CCNC(=O)c1ccc(-c2cnc3[nH]cc(-c4cccc(NC(=O)Nc5ccccc5Oc5ccccc5)c4)c3c2)cc1`, the IC50 in assay [1] is 4 nM; in assay [2], 415 nM.

`Nc1ccc(-c2cnc3[nH]cc(-c4cccc(NC(=O)Nc5ccc(C(F)(F)F)cc5F)c4)c3c2)cc1` displayed an IC50 in assay [1] of 200 nM. Take `CN(C)C(=O)c1cccc(-c2cnc3[nH]cc(-c4cccc(NC(=O)Nc5ccc(Oc6ccccc6)cc5)c4)c3c2)c1`: the results for the half-inhibitory concentration (IC50) in assay [1] and in assay [2] were 2040 nM and 3070 nM, respectively.

With `CN(C)C(=O)c1cccc(-c2cnc3[nH]cc(-c4cccc(NC(=O)Nc5ccccc5OCc5ccccc5)c4)c3c2)c1`, the IC50 in assay [1] was 132 nM; in assay [2], 517 nM. In the case of `O=C(Nc1cccc(Cl)c1)Nc1cccc(-c2c[nH]c3ncc(-c4ccccc4)cc23)c1`, the IC50 in assay [1] turned out to be 1020 nM. That is a single-digit micromolar value. In assay [1], `O=C(Nc1cccc(-c2c[nH]c3ncc(-c4cccc(F)c4)cc23)c1)Nc1ccc(C(F)(F)F)cc1F` displayed an IC50 of 605 nM. Compound `CN(C)S(=O)(=O)c1ccc(-c2cnc3[nH]cc(-c4cccc(NC(=O)Nc5ccccc5Oc5ccccc5)c4)c3c2)cc1` yielded a half-maximal inhibitory concentration (IC50) in assay [2] of 20800 nM. This lies in the double-digit micromolar range.

Consider `O=C(Nc1cccc(-c2c[nH]c3ncc(-c4ccoc4)cc23)c1)Nc1ccccc1Oc1ccccc1`, for which the half-inhibitory concentration (IC50) in assay [1] is 251 nM; in assay [2] it was 1260 nM.

Regarding `CN(C)C(=O)c1cccc(-c2cnc3[nH]cc(-c4cccc(NC(=O)Nc5ccccc5Oc5ccccc5)c4)c3c2)c1`, the IC50 worked out at 21 nM in assay [1] and 68 nM in assay [2]. In the same order, the values of `O=C(Nc1cccc(-c2c[nH]c3ncc(-c4cccc(C(=O)O)c4)cc23)c1)Nc1ccccc1Oc1ccccc1` are 184 nM and 1040 nM. Turning to `O=C(Nc1ccccc1)Nc1cccc(-c2c[nH]c3ncc(-c4ccccc4)cc23)c1`, the IC50 in assay [1] was 749 nM. In the case of `CN(C)S(=O)(=O)c1cccc(-c2cnc3[nH]cc(-c4cccc(NC(=O)Nc5ccccc5Oc5ccccc5)c4)c3c2)c1`, the IC50 in assay [1] was found to be 57 nM; in assay [2], 1120 nM. Take `CN1CCN(C(=O)c2cccc(-c3cnc4[nH]cc(-c5cccc(NC(=O)Nc6ccc(C(F)(F)F)cc6F)c5)c4c3)c2)CC1`: in assay [1], 335 nM corresponded to half-maximal inhibition (IC50). On to `CN(C)CCNC(=O)c1cccc(-c2cnc3[nH]cc(-c4cccc(NC(=O)Nc5ccc(C(F)(F)F)cc5F)c4)c3c2)c1`, for which, in assay [1], the half-inhibitory concentration (IC50) is 67 nM. As for `CN(C)C(=O)c1ccc(-c2cnc3[nH]cc(-c4cccc(NC(=O)Nc5ccccc5Oc5ccccc5)c4)c3c2)cc1`, the 50% inhibitory concentration (IC50) in assay [1] stood at 31 nM; in assay [2] it was 128 nM.

For `NCc1ccc(-c2cnc3[nH]cc(-c4cccc(NC(=O)Nc5ccc(C(F)(F)F)cc5F)c4)c3c2)cc1`, the half-maximal inhibitory concentration (IC50) in assay [3] was found to be 80 nM; in assay [4], 250 nM; in assay [5], 79 nM; in assay [6], 79 nM; in assay [7] it was 32 nM; in assay [1] it was 50 nM. Besides, the midpoint of inhibition in assay [8], the IC50, lay at 40 nM. For `NCc1ccc(-c2cnc3[nH]cc(-c4cccc(NC(=O)Nc5cccc(Cl)c5)c4)c3c2)cc1`, the 50% inhibitory concentration (IC50) in assay [1] is 20 nM. In other words, the double-digit nanomolar range. Regarding `CN(C)C(=O)c1cccc(-c2cnc3[nH]cc(-c4cccc(NC(=O)Nc5cccc(Oc6ccccc6)c5)c4)c3c2)c1`, the IC50 in assay [1] turned out to be 212 nM; in assay [2] it was 961 nM. Consider `O=C(Nc1cccc(-c2c[nH]c3ncc(-c4ccccc4)cc23)c1)Nc1ccccc1Oc1ccccc1`, for which the values for the IC50 in assay [1] and in assay [2] were 127 nM and 693 nM, respectively.
